We go through 17 compounds from patent US20250270227A1, “CAMPTOTHECIN DERIVATIVE, AND PHARMACEUTICAL COMPOSITION AND USE THEREOF” (SIMCERE ZAIMING PHARMACEUTICAL CO., LTD., priority 2021, published 2025).

Test [1] relates to Human colorectal cancer cell line HCT116. Kind of test: Test 1 of anti-proliferative activity against tumor cells (Cell-Titer Glo). It is filed as cell-based. As to conditions: Homo sapiens, HCT-116, 72 h, read-out: HCT116 Anti-proliferative activity IC50 (nM), HCT116 cells, cultured 3 days with compound, Cell-Titer Glo. Here is the method:
(§1) Cell culture: HCT116 cells and SKBR3 cells were cultured in McCoy's 5a medium containing 10% fetal bovine serum+1% penicillin-streptomycin at 37° C. and 5% CO2, and OVCAR3 cells were cultured in 1640 medium containing 20% fetal bovine serum+2 μg/mL bovine insulin+1% penicillin-streptomycin at 37° C. and 5% CO2. Cells in logarithmic growth phase were suitable for the experiment.
(§2) Detection of cell proliferation activity: The inhibitory activity of the compounds on the proliferation of the three cell lines HCT116, SKBR3 and OVCAR3 was detected using Cell-Titer Glo reagent. HCT116 cells (1500 cells per well), SKBR3 cells (3000 cells per well) and OVCAR3 cells (5000 cells per well) were seeded in 96-well plates and cultured at 37° C. and 5% CO2 for 24 h. The solution of the compound to be tested (the compound was dissolved in DMSO with the concentration of the compound being 1 mM, then the compound was diluted to 3 μM with DMSO, with 3-fold dilution and a total of 9 concentrations, and 10 μL of the prepared compound solution was transferred to a 96-well plate with the final concentration of 0-300 nM) was added. The cells were placed at 37° C. and 5% CO2 for further culture. HCT116 cells were cultured for 3 days, and SKBR3 cells and OVCAR3 cells were cultured for 5 days. The cell viability was detected by adding Cell-Titer Glo reagent.
(§3) Additionally, a negative control group and a positive control group were provided as Bottom and Top, respectively. In the negative control group, the cells were not added, only the same volume of medium was added, and other operations were consistent with those in the experimental group; in the positive control group, the test compound was not added, only the same volume of DMSO was added, and other operations were consistent with those in the experimental group.
(§4) Data analysis: The % compound inhibition was calculated, and fitting was performed to obtain IC50 of the compound.
(§5) % Compound inhibition=1−100%*(Signal−Bottom)/(Top−Bottom).
(§6) Signal represents the signal value of the experimental group, Bottom represents the average signal value of the negative control group, and Top represents the average signal value of the positive control group.

The test system of test [2] is human breast cancer cell line SKBR3. The test is described as above. Type of test: cell-based. As to conditions: Homo sapiens, SK-BR-3, 120 h, read-out: SKBR3 Anti-proliferative activity IC50 (nM), SKBR3 cells, cultured 5 days with compound, Cell-Titer Glo. Here is the method:
as §1, §2, §3, §4, §5, §6

The IC50 is the midpoint of a concentration-inhibition curve. With `CC[C@@]1(O)C(=O)OCc2c1cc1n(c2=O)Cc2c-1nc1cc3c(cc1c2CNC(=O)CO)OCCO3` [Compound 1, (S)-N-((8-ethyl-8-hydroxy-9,12-dioxo-2,3,8,9,12,14-hexahydro-11H-[1,4]dioxino[2,3-g]pyrano[3′,4′:6,7]indolizino[1,2-b]quinolin-15-yl)methyl)-2-hydroxyacetamide], the 50% inhibitory concentration (IC50) stood at 36.8 nM in test [1] and 8.5 nM in test [2].
For `CC[C@@]1(O)C(=O)OCc2c1cc1n(c2=O)Cc2c-1nc1cc(F)c(Cl)cc1c2CN` [Compound 2, (S)-11-(aminomethyl)-9-chloro-4-ethyl-8-fluoro-4-hydroxy-1,12-dihydro-14H-pyrano[3′,4′:6,7]indolizino[1,2-b]quinoline-3,14(4H)-dione], in that order: 3.6 nM and 2.5 nM.
`CC[C@@]1(O)C(=O)OCc2c1cc1n(c2=O)Cc2c-1nc1cc(F)c(Cl)cc1c2CNC(=O)CO` [Compound 3, (S)-N-((9-chloro-4-ethyl-8-fluoro-4-hydroxy-3,14-dioxo-3,4,12, 14-tetrahydro-1H-pyrano[3′,4′:6,7]indolizino[1,2-b]quinolin-11-yl)methyl)-2-hydroxyacetamid]: the half-inhibitory concentration (IC50) worked out at 18.2 nM in test [1] and 3.6 nM in test [2].
For `CC[C@@]1(O)C(=O)OCc2c1cc1n(c2=O)Cc2c-1nc1cc(F)c(Br)cc1c2CN` [Compound 4, (S)-11-(aminomethyl)-9-bromo-4-ethyl-8-fluoro-4-hydroxy-1,12-dihydro-14H-pyrano[3′,4′:6,7]indolizino[1,2-b]quinoline-3,14(4H)-dione], in that order: 3.6 nM and 2.7 nM.
For `CC[C@@]1(O)C(=O)OCc2c1cc1n(c2=O)Cc2c-1nc1cc(F)c(Br)cc1c2CNC(=O)CO` [Compound 5, (S)-N-((9-bromo-4-ethyl-8-fluoro-4-hydroxy-3,14-dioxo-3,4, 12,14-tetrahydro-1H-pyrano[3′,4′:6,7]indolizino[1,2-b]quinolin-11-yl)methyl)-2-hydroxyacetamide], in that order: 16.9 nM and 3.3 nM.
For the compound `CC[C@@]1(O)C(=O)OCc2c1cc1n(c2=O)Cc2c-1nc1ccc3c(c1c2CNC(=O)CO)CCC3` [Compound 7, (S)-N-((8-ethyl-8-hydroxy-9,12-dioxo-2,3,8,9,12,14-hexahydro-1H,11H-cyclopentadieno[f]pyrano[3′,4′:6,7]indolizino[1,2-b]quinolin-15-yl)methyl)-2-hydroxyacetamide], the IC50 in test [1] worked out at 22.8 nM.
`CC[C@@]1(O)C(=O)OCc2c1cc1n(c2=O)Cc2cc3c(CNC(=O)CO)c(O)ccc3nc2-1` [Compound 8, (S)-N-((4-ethyl-4,9-dihydroxy-3,14-dioxo-3,4,12,14-tetrahydro-1H-pyrano[3′,4′:6,7]indolizino[1,2-b]quinolin-10-yl)methyl)-2-hydroxyacetamide]: the half-inhibitory concentration (IC50) in test [1] stood at 289 nM; in test [2], 55.1 nM.
For `CC[C@@]1(O)C(=O)OCc2c1cc1n(c2=O)Cc2c-1nc1cc(F)c(C)cc1c2CNC(=O)C1(O)CC1` [Compound 9, (S)-N-((4-ethyl-8-fluoro-4-hydroxy-9-methyl-3,14-dioxo-3,4,12, 14-tetrahydro-1H-pyrano[3′,4′:6,7]indolizino[1,2-b]quinolin-11-yl)methyl)-1-hydroxycyclopropane-1-carboxamide], in that order: 4.6 nM and 2.1 nM.
The like results for `CC[C@@]1(O)C(=O)OCc2c1cc1n(c2=O)Cc2c-1nc1cc(Cl)c(C)cc1c2CNC(=O)C1(O)CC1` [Compound 10, (S)-N-((8-chloro-4-ethyl-4-hydroxy-9-methyl-3,14-dioxo-3,4, 12,14-tetrahydro-1H-pyrano[3′,4′:6,7]indolizino[1,2-b]quinolin-11-yl)methyl)-1-hydroxycyclopropan-1-carboxamide] were, in that order, 5.6 nM and 2.3 nM.
For `CC[C@@]1(O)C(=O)OCc2c1cc1n(c2=O)Cc2c-1nc1cc(Cl)c(C)cc1c2CNC(=O)C(O)C1CC1` (stereo partly drawn) [Compound 11, N-(((S)-8-chloro-4-ethyl-4-hydroxy-9-methyl-3,14-dioxo-3,4, 12,14-tetrahydro-1H-pyrano[3′,4′:6,7]indolizino[1,2-b]quinolin-11-yl)methyl)-2-cyclopropyl-2-hydroxyacetamide], the IC50 in test [1] turned out to be 10.4 nM; in test [2], 3.2 nM.
Turning to `CC[C@@]1(O)C(=O)OCc2c1cc1n(c2=O)Cc2c-1nc1cc(F)c(Cl)c(F)c1c2CN` [Compound 12, (S)-11-(aminomethyl)-9-chloro-4-ethyl-8,10-difluoro-4-hydroxy-1,12-dihydro-14H-pyrano[3′,4′:6,7]indolizino[1,2-b]quinoline-3,14(4H)-dione], the IC50 was found to be 13.7 nM in test [1] and 4.8 nM in test [2].
Take `CC[C@@]1(O)C(=O)OCc2c1cc1n(c2=O)Cc2c-1nc1cnc(Br)cc1c2CNC(=O)CO` [Compound 15, (S)-N-((9-bromo-4-ethyl-4-hydroxy-3,14-dioxo-3,4,12,14-tetrahydro-1H-pyrano[3′,4′:6,7]indolizino[1,2-b][1,7]naphthyridin-11-yl)methyl)-2-hydroxyacetamide]: the half-maximal inhibitory concentration (IC50) in test [1] came to 81.3 nM.
For `CC[C@@]1(O)C(=O)OCc2c1cc1n(c2=O)Cc2c-1nc1cc(F)c(Cl)c(F)c1c2CNC(=O)C1(O)CC1` [Compound 16, (S)-N-((9-chloro-4-ethyl-8,10-difluoro-4-hydroxy-3,14-dioxo-3,4,12,14-tetrahydro-1H-pyrano[3′,4′:6,7]indolizino[1,2-b]quinolin-11-yl)methyl)-1-hydroxycyclopropane-1-carboxamide], the IC50 in test [1] turned out to be 3 nM; in test [2] it was 2.3 nM.
On to `CC[C@@]1(O)C(=O)OCc2c1cc1n(c2=O)Cc2c-1nc1cc(Cl)c(C)cc1c2CNC(=O)C(C)(C)O` [Compound 17, (S)-N-((8-chloro-4-ethyl-4-hydroxy-9-methyl-3,14-dioxo-3,4, 12,14-tetrahydro-1H-pyrano[3′,4′:6,7]indolizino[1,2-b]quinolin-11-yl)methyl)-2-hydroxy-2-methylpropanamide], for which the figures for the IC50 in test [1] and in test [2] were 6 nM and 2.7 nM, respectively.
For `CC[C@@]1(O)C(=O)OCc2c1cc1n(c2=O)Cc2c-1nc1cc(Cl)c3occc3c1c2CNC(=O)CO` [Compound 27, (S)-N-((4-chloro-8-ethyl-8-hydroxy-9,12-dioxo-8,9,12,14-tetrahydro-11H-furo[3,2-f]pyrano[3′,4′:6,7]indolizino[1,2-b]quinolin-15-yl)methyl)-2-hydroxyacetamide], in test [1], the 50% inhibitory concentration (IC50) was 24.3 nM.
On the same count and under the same terms, the same measure for `CC[C@@]1(O)C(=O)OCc2c1cc1n(c2=O)Cc2c-1nc1cc(Cl)c3occc3c1c2CNC(=O)C(O)C1CC1` (stereo partly drawn) [Compound 28, N-(((S)-4-chloro-8-ethyl-8-hydroxy-9,12-dioxo-8,9,12,14-tetrahydro-11H-furo[3,2-f]pyrano[3′,4′:6,7]indolizino[1,2-b]quinolin-15-yl)methyl)-2-cyclopropyl-2-hydroxyacetamide]: 8.8 nM; for `CC[C@@]1(O)C(=O)OCc2c1cc1n(c2=O)Cc2c-1nc1cc3c(c([N+](=O)[O-])c1c2CNC(=O)C(O)C1CC1)OCO3` (stereo partly drawn) [Compound 29, 2-cyclopropyl-N-(((S)-7-ethyl-7-hydroxy-15-nitro-8,11-dioxo-7,8,11,13-tetrahydro-10H-[1,3]dioxolo[4,5-g]pyrano[3′,4′:6,7]indolizino[1,2-b]quinolin-14-yl)methyl)-2-hydroxyacetamide]: 55.1 nM.
